A short description of series [1]: Metabolite identification in dog liver microsomes. Format: in vitro ADME. The following applies: 7–16 10 µM, liver microsomes 1 mg/mL, NADPH, 37 °C, 60 min. The protocol: (§1) In accordance with our previous methods, 7–16 (10 µM) was incubated with mouse, rat, dog, monkey, and human liver microsome proteins (1 mg/mL) in 100 mM sodium phosphate buffer (pH 7.4) containing 10 mM magnesium chloride and 2 mM NADPH at 37 °C for 60 min. All samples were prepared in duplicates. The reactions were terminated by adding three times the volume of ice-cold acetonitrile (600 µL) and stored at −20 °C until analysis. Control samples without NADPH and 0-time point samples were included. As a positive control, testosterone (10 µM), which was metabolized to produce the hydroxylation metabolite, was used as a substrate to confirm the activity of the incubation system.
(§2) After pre-treatments, the samples were analyzed by an Acquity UPLC system coupled with a diode array detector (Waters Corporation, Milford, MA, USA) and Q Exactive HRMS (Thermo Electron Corporation, Waltham, MA, USA) (UPLC–UV-Q Exactive HRMS). Samples were separated on an Agilent XDB C18 column (150 × 2.1 mm i.d. 3.5 μm, Agilent Corporation, Santa Clara, CA, USA) at 40 °C by gradient elution with water and acetonitrile containing 0.1% formic acid. The flow rate was 0.40 mL/min. The ultraviolet (UV) detection wavelength was 286 nm. Q Exactive HRMS were operated at positive ion mode (3.5 kV) using a heating electrospray ionization source. Mass calibration was required to be performed before conducting experiments so as to achieve the best mass accuracy and mass calibration should be performed every five days. The metabolites were detected by full MS/dd-MS^2 analysis from m/z 100 to m/z 1000. The resolution of the first-class scan and second-class scan was 70,000 and 17,500, respectively. Thermo Compound Discover software was used to identify expected and unknown metabolites, and we finally proposed the 7–16 metabolic pathways based on the deduced metabolites and relevant drug biotransformation knowledge.
(Liver microsomes are vesicles of endoplasmic reticulum, rich in cytochrome P450 enzymes.)

In another series the target is T1, OAT3 (Homo sapiens, UniProt Q8TCC7).
T1 sequence (Q8TCC7 1-542): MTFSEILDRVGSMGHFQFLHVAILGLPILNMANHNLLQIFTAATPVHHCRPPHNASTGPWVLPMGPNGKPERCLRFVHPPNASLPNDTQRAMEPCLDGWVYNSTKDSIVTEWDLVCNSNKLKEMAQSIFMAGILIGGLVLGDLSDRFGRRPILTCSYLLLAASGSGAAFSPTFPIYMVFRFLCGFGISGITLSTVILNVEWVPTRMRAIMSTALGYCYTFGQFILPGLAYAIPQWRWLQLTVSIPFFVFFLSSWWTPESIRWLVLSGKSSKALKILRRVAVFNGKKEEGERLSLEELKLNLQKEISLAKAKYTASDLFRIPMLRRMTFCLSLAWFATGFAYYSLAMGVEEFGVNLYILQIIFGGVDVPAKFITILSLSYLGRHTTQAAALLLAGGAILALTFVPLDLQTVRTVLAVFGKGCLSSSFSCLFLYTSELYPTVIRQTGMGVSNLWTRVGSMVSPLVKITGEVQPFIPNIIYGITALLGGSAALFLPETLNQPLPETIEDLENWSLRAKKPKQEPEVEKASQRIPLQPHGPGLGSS

The subject of the next series is CYP1A2. The arrangement: method as in PMID 35279606. The following applies: previous study; read-out: CYP1A2 inhibition IC50; cited from earlier work.
For the next series, the system named is CYP3A4. The arrangement: method as in PMID 35279606. The following applies: previous study; read-out: CYP3A4 inhibition IC50; cited from earlier work.
For another series, the target named is T2, OAT1 (Homo sapiens, UniProt Q4U2R8).
T2 construct: host or cells: HEK293
T2 sequence (Q4U2R8 1-563): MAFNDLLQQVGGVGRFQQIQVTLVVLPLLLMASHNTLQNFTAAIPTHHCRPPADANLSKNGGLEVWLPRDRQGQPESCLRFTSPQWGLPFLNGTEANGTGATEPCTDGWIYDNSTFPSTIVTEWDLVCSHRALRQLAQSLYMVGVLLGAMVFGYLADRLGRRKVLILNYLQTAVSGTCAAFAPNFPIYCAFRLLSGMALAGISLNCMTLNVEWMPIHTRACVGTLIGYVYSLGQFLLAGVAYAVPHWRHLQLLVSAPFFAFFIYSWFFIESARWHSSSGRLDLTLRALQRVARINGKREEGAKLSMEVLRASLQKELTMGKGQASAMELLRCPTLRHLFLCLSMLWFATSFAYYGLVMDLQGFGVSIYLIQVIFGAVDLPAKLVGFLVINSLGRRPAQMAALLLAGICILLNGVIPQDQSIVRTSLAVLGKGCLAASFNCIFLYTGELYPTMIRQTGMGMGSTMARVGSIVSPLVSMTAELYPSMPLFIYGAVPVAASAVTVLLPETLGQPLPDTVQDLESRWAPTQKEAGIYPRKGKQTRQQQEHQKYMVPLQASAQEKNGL
The series can be described thus: OAT1 inhibitor assay in HEK293 cells. Format: in vitro ADME. The following applies: substrate p-Aminohippurate, read-out: Inhibition IC50, OAT1.

The next series deals with CYP2C19. The arrangement: method as in PMID 35279606. The note with it: previous study; read-out: CYP2C19 inhibition IC50; cited from earlier work.
The target in another series is T3, P-gp (Homo sapiens, UniProt P08183).
T3 construct: expressed in transfected cells; host or cells: MDR1-MDCKII (Madin-Darby canine kidney cells)
Briefly: P-gp inhibitor assay in MDR1-MDCKII cells. The following applies: substrate Digoxin 10.0 µM, efflux ratio, read-out: Inhibition IC50, P-gp. Format: in vitro ADME.

The nature of series [2]: Metabolite identification in human liver microsomes. Format: in vitro ADME. The following applies: 7–16 10 µM, liver microsomes 1 mg/mL, NADPH, 37 °C, 60 min. As to the method: as §1, §2
The test system of another series is hERG. More on the design: method as in PMID 35279606. The note with it: versus pimavanserin; cited from earlier work.

Structures are written as SMILES.

T3 sequence (P08183 whole entry): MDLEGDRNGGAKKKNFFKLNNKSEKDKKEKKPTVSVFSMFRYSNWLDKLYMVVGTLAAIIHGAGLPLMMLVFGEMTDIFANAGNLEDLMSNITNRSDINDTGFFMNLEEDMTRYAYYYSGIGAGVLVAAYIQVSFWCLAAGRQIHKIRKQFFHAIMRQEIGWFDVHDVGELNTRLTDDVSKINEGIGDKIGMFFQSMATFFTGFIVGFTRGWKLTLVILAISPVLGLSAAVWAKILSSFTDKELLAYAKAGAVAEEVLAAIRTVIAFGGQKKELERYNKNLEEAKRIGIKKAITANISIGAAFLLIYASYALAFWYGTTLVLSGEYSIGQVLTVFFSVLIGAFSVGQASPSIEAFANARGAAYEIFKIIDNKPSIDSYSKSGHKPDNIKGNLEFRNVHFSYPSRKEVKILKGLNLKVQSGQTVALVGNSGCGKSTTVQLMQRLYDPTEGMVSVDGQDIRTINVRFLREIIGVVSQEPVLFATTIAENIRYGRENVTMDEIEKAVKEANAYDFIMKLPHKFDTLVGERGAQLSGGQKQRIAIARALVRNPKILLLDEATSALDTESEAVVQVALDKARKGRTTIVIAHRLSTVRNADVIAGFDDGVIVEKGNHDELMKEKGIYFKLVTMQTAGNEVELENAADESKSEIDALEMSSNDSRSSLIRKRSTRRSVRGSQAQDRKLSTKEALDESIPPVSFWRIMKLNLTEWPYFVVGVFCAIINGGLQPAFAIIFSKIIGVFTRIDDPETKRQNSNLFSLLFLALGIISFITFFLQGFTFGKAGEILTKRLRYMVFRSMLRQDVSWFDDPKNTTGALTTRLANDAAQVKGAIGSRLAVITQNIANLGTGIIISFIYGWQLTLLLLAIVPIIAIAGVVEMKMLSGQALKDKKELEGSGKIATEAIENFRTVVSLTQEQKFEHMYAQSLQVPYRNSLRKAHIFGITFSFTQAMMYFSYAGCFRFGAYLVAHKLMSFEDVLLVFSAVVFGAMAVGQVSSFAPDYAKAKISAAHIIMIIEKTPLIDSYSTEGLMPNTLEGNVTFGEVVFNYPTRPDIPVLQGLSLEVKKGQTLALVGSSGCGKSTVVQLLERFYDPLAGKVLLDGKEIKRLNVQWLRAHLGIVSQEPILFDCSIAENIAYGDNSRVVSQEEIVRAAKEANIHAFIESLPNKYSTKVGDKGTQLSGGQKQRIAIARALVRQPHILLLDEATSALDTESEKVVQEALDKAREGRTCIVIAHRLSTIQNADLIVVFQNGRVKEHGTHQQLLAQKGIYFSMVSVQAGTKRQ

Turning to `CN1CCC(N(Cc2ccc(F)cn2)C(=O)NCc2ccc(OCC(F)(F)F)cc2)CC1` [7–16, 3-(4-(2,2,2-trifluoroethoxy)benzyl)-1-((5-fluoropyridin-2-yl)methyl)-1-(1-methylpiperidin-4-yl) urea], in [1], the “Relative Abundance, UV Area% Dog” value was found to be 77.2%. For the same compound, the IC50 (as a rule, the concentration at which inhibition is half-maximal) against OAT3 is > 100 µM; with CYP1A2, 8.5 µM; with CYP3A4, > 62.9 µM; on OAT1, > 100 µM; with CYP2C19, > 62.9 µM; at P-gp it was 30.6 µM. For the same compound, the “Relative Abundance, UV Area% Human” value in series [2] is on record as 95.2%. Besides, the “fold weaker hERG inhibitory activity than pimavanserin” value in the series with hERG was 2 fold.

The values are drawn from PMC11124362, “Metabolism, Disposition, Excretion, and Potential Transporter Inhibition of 7–16, an Improving 5-HT2A Receptor Antagonist and Inverse Agonist for Parkinson’s Disease” (Molecules, 2024).
